Where a chain is given by its changes, count along the chain named.
Key:
Assay in all cases: FRET ratio (YFP/CFP, […] nm) titration of purified sensor
Type in all cases: binding
[1] = target: T1, NrtA (FLIP-NT; CFP_NrtA_YFP) (Synechocystis sp. PCC 6803, UniProt P73452, W102A)
T1 construct: FRET sensor: His6-CFP-NrtA-YFP; NrtA without signal peptide (first 36 residues), stop and penultimate codon removed (1227 bp, 409 residues); E. coli BL21-CodonPlus(DE3), Ni-NTA
T1 sequence (P73452 37-445 W102A): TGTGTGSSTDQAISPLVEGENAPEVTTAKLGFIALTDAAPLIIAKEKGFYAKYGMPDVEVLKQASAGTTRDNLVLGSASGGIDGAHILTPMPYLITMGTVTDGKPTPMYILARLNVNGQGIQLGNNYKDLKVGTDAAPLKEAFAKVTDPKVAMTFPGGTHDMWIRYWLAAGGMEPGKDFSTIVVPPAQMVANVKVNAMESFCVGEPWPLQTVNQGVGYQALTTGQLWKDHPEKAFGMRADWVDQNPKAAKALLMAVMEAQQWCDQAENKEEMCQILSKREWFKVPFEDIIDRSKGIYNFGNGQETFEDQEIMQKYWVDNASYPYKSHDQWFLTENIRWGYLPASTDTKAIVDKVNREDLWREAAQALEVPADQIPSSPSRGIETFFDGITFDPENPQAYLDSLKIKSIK

[2] = target: T2, NrtA (FLIP-NT; CFP_NrtA_YFP) (Synechocystis sp. PCC 6803, UniProt P73452)
T2 construct: FRET sensor: His6-CFP-NrtA-YFP; NrtA without signal peptide (first 36 residues), stop and penultimate codon removed (1227 bp, 409 residues); E. coli BL21-CodonPlus(DE3), Ni-NTA
T2 sequence (P73452 37-445): T1 sequence (P73452 37-445 W102A) with A66W

[3] = target: T3, NrtA (FLIP-NT; CFP_NrtA_YFP) (Synechocystis sp. PCC 6803, UniProt P73452, Q155I)
T3 construct: FRET sensor: His6-CFP-NrtA-YFP; NrtA without signal peptide (first 36 residues), stop and penultimate codon removed (1227 bp, 409 residues); E. coli BL21-CodonPlus(DE3), Ni-NTA
T3 sequence (P73452 37-445 Q155I): T1 sequence (P73452 37-445 W102A) with A66W, Q119I

[4] = target: T4, NrtA (FLIP-NT; CFP_NrtA_YFP) (Synechocystis sp. PCC 6803, UniProt P73452, G240Q)
T4 construct: FRET sensor: His6-CFP-NrtA-YFP; NrtA without signal peptide (first 36 residues), stop and penultimate codon removed (1227 bp, 409 residues); E. coli BL21-CodonPlus(DE3), Ni-NTA
T4 sequence (P73452 37-445 G240Q): T1 sequence (P73452 37-445 W102A) with A66W, G204Q

Q: Which results are given for `O=[N+]([O-])O` [nitrate]?
A: Kd [1]: 56 µM; Kd [2]: 5 µM; Kd [3]: 1 µM; Kd [4]: 32 µM

From paper PMC7689916, “A Fluorescence Resonance Energy Transfer-Based Analytical Tool for Nitrate Quantification in Living Cells” (ACS Omega, 2020)
